Reference: article PMC2753600 (The FEBS journal, 2009)
Substitutions are numbered along the chain they refer to. Where a name gives a salt, the structure may show the parent alone. Read-outs that look alike come from different tables or passages of the source.

Key:
Assay type in all cases: biochemical
[1] = target: T1, purified wild-type human MAO A (Homo sapiens, UniProt P21397); experiment: Competitive inhibition of purified wild-type human MAO A
T1 sequence (P21397 1-527): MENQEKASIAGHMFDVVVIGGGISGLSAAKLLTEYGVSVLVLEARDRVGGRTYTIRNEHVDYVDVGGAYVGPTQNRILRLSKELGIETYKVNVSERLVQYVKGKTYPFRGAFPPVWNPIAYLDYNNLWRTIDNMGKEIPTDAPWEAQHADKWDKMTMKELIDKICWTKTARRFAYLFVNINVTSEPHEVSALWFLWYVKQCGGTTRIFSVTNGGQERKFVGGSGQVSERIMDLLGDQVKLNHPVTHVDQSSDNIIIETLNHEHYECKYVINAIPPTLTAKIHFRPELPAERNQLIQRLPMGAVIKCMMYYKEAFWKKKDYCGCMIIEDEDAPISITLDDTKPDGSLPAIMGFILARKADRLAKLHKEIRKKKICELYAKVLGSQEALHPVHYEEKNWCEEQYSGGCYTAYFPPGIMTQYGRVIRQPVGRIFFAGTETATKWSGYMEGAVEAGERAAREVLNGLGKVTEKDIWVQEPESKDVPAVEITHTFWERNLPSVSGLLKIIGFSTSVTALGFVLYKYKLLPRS

[2] = target: T2, purified human MAO A Ser209Glu mutant (Homo sapiens, UniProt P21397, S209E); experiment: Competitive inhibition of purified human MAO A Ser209Glu mutant; conditions: for lower affinity for the Ser209Glu mutant than for the wild-type enzyme: purified Ser209Glu vs purified wild-type MAO A
T2 sequence (P21397 1-527 S209E): T1 sequence (P21397 1-527) with S209E

[3] = target: T3, membrane-bound wild-type MAO A (Homo sapiens, UniProt P21397); experiment: Steady-state kinetics of membrane-bound wild-type MAO A; conditions: 50 mM potassium phosphate pH 7.5
T3 sequence (P21397 1-527): T1 sequence (P21397 1-527)

[4] = target: T4, membrane-bound MAO A Ser209Glu mutant (Homo sapiens, UniProt P21397, S209E); experiment: Steady-state kinetics of membrane-bound MAO A Ser209Glu mutant; conditions: 50 mM potassium phosphate pH 7.5
T4 sequence (P21397 1-527 S209E): T1 sequence (P21397 1-527) with S209E

[5] = target: T5, purified human MAO A Ser209Ala mutant (Homo sapiens, UniProt P21397, S209A); experiment: Competitive inhibition of purified human MAO A Ser209Ala mutant
T5 sequence (P21397 1-527 S209A): T1 sequence (P21397 1-527) with S209A

## c1cc2c(cc1C1CCCCC1)c1c3n2CCNC3CCC1 (stereo not drawn) [Tetrindole Mesylate, tetrindole mesylate]
[1]; competitive inhibition constant, purified wild-type human MAO A
  Ki: 5.27 ± 0.24 µM

## CC(C)(N)Cc1ccccc1 [Phentermine, phentermine]
[2]
  lower affinity for the Ser209Glu mutant than for the wild-type enzyme: 13 fold

## NCCc1ccccc1 [Phenylethylamine, β-phenylethylamine]
[3]
  Km: 470 ± 40 µM
  kcat: 0.8095 ± 0.0177 s⁻¹
[4]
  Km: 850 ± 70 µM
  kcat: 1.068 ± 0.0238 s⁻¹

## O=C1Nc2ccccc2C1=O [Isatin, isatin]
[2]
  lower affinity for the Ser209Glu mutant than for the wild-type enzyme: 20 fold

## Cc1ccc2c(c1)c1c3n2CCNC3CCC1 (stereo not drawn) [Pirlindole Mesylate, pirlindole mesylate]
[1]
  Ki: 0.92 ± 0.04 µM
[5]
  Ki: 0.88 ± 0.18 µM
[2]
  Ki: 21.5 ± 1.36 µM

## Cc1nccc2c1[nH]c1ccccc12 [Harmane]
[2]; purified enzymes
  binding to the Ser209Glu mutant compared with wild-type or Ser209Ala MAO A: much more weakly

## C[C@H](N)Cc1ccccc1 [d-Amphetamine, d-amphetamine]
[1]
  Ki: 3.69 ± 0.45 µM
[5]
  Ki: 4.72 ± 0.63 µM
[2]
  Ki: 609 ± 31.6 µM
  lower affinity for the Ser209Glu mutant than for the wild-type enzyme: 160 fold
